Consider six compounds from patent publication US7709600B2, “Interaction between the VHL tumor suppressor and hypoxia inducible factor, and assay methods relating thereto” (Isis Innovation Limited, priority 1999, dated 2010).

Test [1] has as its target pVHL-HIF-1α interaction (Homo sapiens, UniProt P40337+Q16665). As to the kind of experiment: pVHL interaction with HIF-1α sequences translated in reticulocyte lysate in the presence of metal ions. The format is binding.
The subject of test [2] is pVHL interaction with HIF-1α and HIF-2α. Description: Anti-pVHL immunoprecipitation of RCC4/VHL cell extracts, immunoblot for HIF α subunits. Conditions: treated RCC4/VHL cells, compared with hypoxic cells. (Immunoblotting shows a protein as a band on a membrane.)
The next test addresses pVHL/HIF-1 complex (Homo sapiens, UniProt P40337+Q16665). As to the kind of experiment: EMSA / anti-pVHL supershift of the HIF-1 DNA binding complex from treated RCC4/VHL cells. Conditions: for HIF-1 complex species seen in EMSA: RCC4/VHL cells cultured four hours, 100 μM.
In a further test the test system is HIF-1α. Description: In vitro ubiquitylation assay for HIF-1α. The format is biochemical, human. Here is the method: To test the hypothesis that pVHL is a necessary component of a ubiquitin ligase complex recognising HIF-α we developed an in vitro ubiquitylation assay for HIF-1α. In this assay, cell extracts (initially from Cos-7) were incubated with [^35S]labelled HIF-1α prepared in vitro in reticulocyte lysates. This was used as substrate in reactions with different combinations of extract, an ATP-regenerating system, ubiquitin aldehyde, and methylated ubiquitin. Reactions were incubated at 30° C. for 270 minutes before analysis by SDS-PAGE.
Incubation with extract alone converted the HIF-1α substrate to a slower migrating form, an effect which was enhanced by an ATP-regenerating system, and was prevented by addition of the protein kinase inhibitor 2-aminopurine. […] This assignment was confirmed by enhancement with addition of ubiquitin aldehyde, an isopeptidase inhibitor that prevents the breakdown of ubiquitin conjugates.
An experiment similar to that of section (h) above was performed but with the omission of ubiquitin aldehyde. pVHL was generated by in vitro transcription translation, and HIF-1α was also generated in reticulocyte lysate in the presence or absence of 100 μM Fe2+ and Fe3+. […] Thus assays of the invention may be used for the identification of compounds acting at a point distal to the HIF-pVHL interaction (i.e. not altering binding but interfering with tagging or destruction). It also provides further evidence for modifications of HIF influencing its ability to bind pVHL. […]
In vitro ubiquitylation assay. […] Aliquots were removed at indicated times, mixed with SDS sample buffer and analysed by SDS-PAGE and autoradiography. Gels were quantitated using a Storm 840 PhosphorImager (Molecular Dynamics).

For test [3], the system named is pVHL-HIF-1α interaction. Description: pVHL interaction with HIF-1α sequences translated in reticulocyte lysate in the presence of metal ions. The test is classed as binding, human. Conditions: subsequences 556-574, 549-574, 556-582, 549-582; 100 μM Fe2+ and 100 μM Fe3+.
Where [4] appears, read: full HIF-1α, 100 μM ion during translation.

Like-named read-outs stand apart in the source and are kept apart here.

As to `[Cl-].[Cl-].[Co+2]` [cobalt, cobaltous chloride], at pVHL-HIF-1α interaction [1] (setting [4]), the “interaction of pVHL with HIF-1α translated in the presence of the ion” value (from here on “interaction of pVHL … of the ion”) is “diminishes”. Further, in test [2], the “HIF-1α and HIF-2α contained in anti-pVHL immunoprecipitates” value was “neither protein was contained”. Moreover, on pVHL/HIF-1 complex, the “HIF-1 complex species seen in EMSA” value is given as “only the faster mobility HIF-1 complex”.
For the compound `CC(=O)N(O)CCCCCNC(=O)CCC(=O)N(O)CCCCCNC(=O)CCC(=O)N(O)CCCCCN` [desferrioxamine], the “HIF-1α and HIF-2α contained in anti-pVHL immunoprecipitates” value in test [2] is listed as “neither protein was contained”. In addition, the “HIF-1 complex species seen in EMSA” value on pVHL/HIF-1 complex is recorded as “only the faster mobility HIF-1 complex”. At pVHL/HIF-1 complex (treatment four hours prior to hypoxia), the pVHL/HIF-1 complex forming result is “prevented”.
With ubiquitin aldehyde, in the test with HIF-1α (Cos-7 cell extract, 30° C., 270 minutes), the “generation of high molecular weight polyubiquitylated HIF-1α species” value is given as “enhancement”.
`Nc1ncc2[nH]cnc2n1` [2-aminopurine]: in the test on HIF-1α (Cos-7 cell extract, 30° C.), the “conversion of HIF-1α substrate to a slower migrating form (phosphorylation)” value is on record as “prevented”.
iron: on pVHL-HIF-1α interaction [1] (setting [4]), the “interaction of pVHL … of the ion” value is “enhances”. Also, the “amount of interaction of pVHL with HIF-1 subsequences” value in the test on pVHL-HIF-1α interaction [3] was “substantial increase”. For the same compound, the “ubiquitylation of HIF-1α produced in the presence of the ions” value with HIF-1α (HIF-1α generated in reticulocyte lysate with 100 μM Fe2+ and Fe3+, ubiquitin aldehyde omitted) is reported as “Enhanced ubiquitylation”.
On to `[Ni+2]` [nickel], for which the “interaction of pVHL … of the ion” value at pVHL-HIF-1α interaction [1] is “diminishes”.
